Test results reported in US20130231291A1, “FERMENTED SOYA BASED MIXTURE COMPRISING ISOFLAVONES- AGLICONES, EQUOL AND LUNASIL, PROCESS FOR THE PREPARATION AND USES THEREOF IN FOOD, MEDICAL AND COSMETIC FIELDS” (priority 2010, published 2013).

What was measured:
Type in all cases: cell-based, human
Caco-2/TC7 cells [1] = experiment: TEER of Caco-2/TC7 cell layer; conditions: for TEER of cells stimulated with IFN-γ: IFN-γ 1000 U/ml, 24, 48 and 72 h, soya milk diluted at equol 10 μM
Procedure: The incubation has been carried out in the presence of γ-interpheron (IFN-γ) (1000 U/ml (-▪-); IFN-γ and soya milk, obtained from biological soya flour, not fermented (-Δ-) or fermented with the selected mixed starter, diluted at equol final concentration of 10 μM and sterile filtered. (-x-). DMEM culture medium has been used as negative control (-♦-). Data are the average of three triplicate experiments. Asterisk indicates meaningful differences (P<0.01) compared to negative control.
For TEER measurement Caco-2/TC7 cells have been inoculated (7.5×10^4 cell/ml) in a microplate container with 24 […] and a polyethylene filter (0.4 μm pore size). Before the treatment, the cells have been incubated for 21 days at 37° C. […] Integrity of cellular layer then has been determined by means of TEER measurements.
Under culture conditions of this study, Caco-2/TC7 cells develop morphological and functional characteristics of enterocytes, including tight intercellular junctions, integrity thereof being measured by TEER determination. Preliminarily, TEER has been determined in the presence of standard chemical compounds (10-100 μM), fermented OFS soya milk and diluted at equol concentration of 10 μM, or not fermented OFS soya milk. […] Treatments of Caco-2/TC7 cells with INF-γ (1000 U/ml) favoured a remarkable decrease (P<0.003) of TEER value (FIG. 6).

[2] = system: interleukin-8 (IL-8) from Caco-2/TC7 cells; experiment: Interleukin-8 release by ELISA after IL-1β stimulation; conditions: IL-1β 2 ng/ml for 24 h, then 24 h treatment at 10 μM (soya milk: equol 10 μM)
Procedure: DMEM culture medium containing DMSO (1%, v/v) or methanol (0.5%, v/v) has been used as negative control. Data are the average of three triplicate experiments. Asterisk indicates meaningful differences (P<0.01) compared to negative control.
For measurement of released interleukin-8 (IL-8) Caco-2/TC7 cells have previously been incubated (24 h) with interleukin-1β and then stimulated for further 24 h with the different preparations. The synthesis of pro-inflammatory IL-8 has been determined by ELISA assay (Bender MedSystems). The quantification has been carried out using a standard curve according to .kit instructions
Interleukin-8 (IL-8) is a member of C—X—C chemokine family and plays a fundamental role in activation of neutrophil cells, thus initiating the inflammatory response. When Caco-2/TC7 cells are subjected to a treatment with inteleukin-1β (2 ng/ml) has been observed a meaningful increment (P<0.001) of IL-8 synthesis (FIG. 7).

Caco-2/TC7 cells [3] = experiment: Nitric oxide (NO) release, Griess reagent; conditions: pre-treated 24 h at 10 μM (soya milk: equol 10 μM), then IFN-γ 1000 U/ml + LPS 100 ng/ml for 24 h
Procedure: The cells have been pre-treated for 24 h with chemical compounds (10 μM) used as standards (equol, daidzein, genistein and glycitein) and soya milk, obtained from biological soya flour, not fermented or fermented using mixed selected starter, diluted at equol final concentration of 10 μM and sterile filtered. Successively, the cells have been stimulated with γ-interpheron (IFN-γ) (1000 U/ml) and lipopolysaccharide (LPS) (100 ng/ml) for 24 h. DMEM culture medium containing DMSO (1%, v/v) or methanol (0.5%, v/v) has been used as negative control. Data are the average of three triplicate experiments. Asterisk indicates meaningful differences (P<0.01) compared to negative control.
The nitric oxide release (NO) from Caco-2/TC7 cells has been determined by measuring the oxidation products, i.e. nitrite and nitrate. After incubation with the different preparations, the supernatant of cell cultures has been mixed with an equal volume of Griess reagent (1%, p/v, sulfanilic acid in 0.5 M HCl and 0.1%, p/v, N-1-naphthylethylendiamine hydrochloride). After 30 min of incubation at room temp., the absorbance at 540 nm has been measured Nitrite concentration has been determined with reference to standard curve prepared with sodium nitrite.
Preliminarily, Caco-2/TC7 cells have been treated for 24 h at concentration of 10 μM with the OFS fermented soya milk and diluted at equol final concentration of 10 μM or with not fermented soya milk. […] Successively, Caco-2/TC7 cells have been stimulated with INF-γ (1000 U/ml) e LPS (100 ng/ml) per 24 h.

Caco-2/TC7 cells [4] = experiment: Neutral Red uptake cytotoxicity assay; conditions: standard chemical compounds 5-100 μM; vs methanol and DMSO negative control
Procedure: Human origin Caco-2 cells (clone TC7) have been cultured in Dulbecco (DMEM) medium, added with bovine foetal serum (10%), not essential amino acids (1%), gentamycin/streptomycin (50 μg/ml), glutamine (2 mM) and 4-2-hydroxyethyl-1-piperazinyl-ethanesulfonic acid (1%) (Di Cagno et al., 2010. Quorum sensing in sourdough Lactobacillus plantarum DC400: induction of plantaricin A (PlnA) under co-cultivation with other lactic acid bacteria and effect of PlnA on bacterial and Caco-2 cells. Proteomics in press). The cells viability has been determined by uptake assay of Neutral Red dye (Balls et al., 1987. Approaches to validation alternative methods in toxicology. In: Goldber A. M. (Ed). N.Y. Academic Press pp. 45-58). After treatment for 24-72 h with the different preparations, the cells have been washed with PBS buffer and incubated for 4 h at 37° C. with Neutral Red solution (33 mg/l). […] Plate reading has been carried out using Novapath reader (Biorad, Hercules, Calif.) (Di Cagno et al., 2010).
With the purpose to test immunomodulating properties of isoflavones-aglicones contained in soya milk produced from biological soya flour (OFS), cytotoxicity against Caco-2/TC7 cells by standard chemical compounds (equol, daidzein, genistein and glycitein) at concentrations of 5-100 μM using Neutral Red (NR) uptake assay, firstly has been evaluated.

Row | Structure (SMILES) | TEER of cells stimulated with IFN-γ (Caco-2/TC7 cells [1]) | effects on TEER without IFN-γ (Caco-2/TC7 cells [1]; equol at 100 μM, 72 h of incubation) | IL-8 synthesis [2] | NO release after IFN-γ and LPS stimulation (Caco-2/TC7 cells [3]) | cell proliferation (Neutral Red uptake) (Caco-2/TC7 cells [4])
1 | Oc1ccc([C@H]2COc3cc(O)ccc3C2)cc1 [equol] | trend similar to fermented OFS soya milk | exception | meaningful decrement | inhibited in a marked manner | –
2 | COc1cc2c(=O)c(-c3ccc(O)cc3)coc2cc1O [glycitein] | trend similar to fermented OFS soya milk | – | did not resulted in (P<0.10) a decrement | considerable inhibition | –
3 | O=c1c(-c2ccc(O)cc2)coc2cc(O)cc(O)c12 [genistein] | trend similar to fermented OFS soya milk | – | did not resulted in (P<0.10) a decrement | considerable inhibition | did not affect significantly cell proliferation
4 | O=c1c(-c2ccc(O)cc2)coc2cc(O)ccc12 [daidzein] | has not interfered with the negative effect caused by INF-γ | – | meaningful decrement | significantly increased | –
